Data published in patent US12290535B2, “Langerin+ cell targeting” (Max-Planck-Gesellschaft zur Förderung der Wissenschaften …, priority 2018, dated 2025).

Experiments:
[1] = system: Langerin+ cells; assay: in vitro cytotoxicity, Annexin-V / 7-AAD staining; assay type: cell-based; details: 50% DMSO for 3 min, positive control
Description: Liposomes consist mainly of phospholipids and cholesterol. […] As a positive control, cells were treated for 3 min with 50% DMSO. Untreated cells were applied as negative controls. Cells were washed and resuspended in 25 μl buffer (10 mM HEPES, 140 mM NaCl and 2.5 mM CaCl2), pH7.4) containing 1:100 diluted Annexin-V-FITC (Adipogen). Cells were incubated for 10 min in the dark at room temperature. After washing, cells were resuspended in 100 μl buffer containing 1 μl 7-AAD solution (Biolegend) and incubated for 5-10 min in the dark at room temperature. Cells were directly measured without any further washing steps by flow cytometry. […] Annexin-V was detected with a 530/30 filter, 7-AAD with a 695/40 filter and Alexa647 with a 670/14 filter (Attune Nxt, life technologies). […] Langerin targeted liposomes were incubated with cells for extended time periods up to 72 h, and cell toxicity was subsequently analyzed (see FIG. 17).
Early apoptotic effects were detected with Annexin-V staining that binds translocated phosphatidylserine, whereas late apoptotic cells were stained with 7-AAD a cell impermeable fluorescent intercalator that associates to DNA and undergoes a spectral shift. […] After doublet discrimination, single cells were analyzed for Annexin-V-FITC and 7-AAD staining in a bivariate histogram by dividing the plot in four quadrants. […]

[2] = biological target: T1, Langerin ECD (Homo sapiens, UniProt Q9UJ71, V278A); assay: 19F R2-filtered NMR reporter displacement assay (Ki determination); assay type: binding; details: Langerin ECD 50 μM, pH 7.8, 25° C.
T1 construct: residues 148 to 328; TEV site (C); StreptagII (C); made in house; host or cells: E. coli BL21* (DE3)
T1 sequence (Q9UJ71 148-328 V278A): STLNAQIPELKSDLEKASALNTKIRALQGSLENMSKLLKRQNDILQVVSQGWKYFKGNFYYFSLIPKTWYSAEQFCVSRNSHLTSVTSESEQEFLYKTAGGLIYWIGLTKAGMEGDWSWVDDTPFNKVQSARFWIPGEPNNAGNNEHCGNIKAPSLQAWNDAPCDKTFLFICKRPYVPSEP
Description: Langerin extracellular domain. Expression and purification were conducted as previously published (Wamhoff, E. C. et al. (19)F Nmr-Guided Design of Glycomimetic Langerin Ligands. ACS Chem Biol, 11, 2407-13 (2016)). Briefly, the trimeric Langerin extracellular domain (ECD) was expressed insolubly in E. coli BL21* (DE3) (Invitrogen). Following enzymatic cell lysis, inclusion bodies were harvested and subsequently solubilized. The sample was centrifuged and the Langerin ECD was refolded overnight via rapid dilution. Next, the sample was dialyzed overnight, centrifuged and purified via mannan-agarose affinity chromatography (Sigma Aldrich). For ^19F R2-filtered NMR and lipid-enzyme-linked lectin assay (Lipid-ELLA) experiments, the buffer was exchanged to 25 mM Tris with 150 mM NaCl and 5 mM CaCl2 at pH 7.8 using 7 kDa size-exclusion desalting columns (Thermo Scientific). For STD NMR experiments, Langerin ECD samples were dialyzed five times for at least 8 h against H2O. Subsequently, the H2O was removed via lyophilization and the residue was stored at −80° C. Prior to STD NMR experiments, the Langerin ECD was dissolved in 25 mM Tris-d11 (Eurisotope) with 100% D2O, 150 mM NaCl and 5 mM CaCl2 at pH 7. The concentration of Langerin ECD was determined via UV spectroscopy (A280, 0.1%=2.45). Purity and monodispersity of Langerin ECD samples were analyzed via SDS PAGE and DLS.
General remarks. ^19F R2-filtered NMR experiments were conducted on a PremiumCompact 600 MHz spectrometer (Agilent). Spectra were processed in MestReNova and data analysis was performed with OriginPro (Mestrelab Research. Mestrenova. 11.0.2. (2016); OriginLab. Originpro. 9.1. (2015)). Experiments with the Langerin ECD were performed at a receptor concentration of 50 μM in 25 mM Tris with 10% D2O, 150 mM NaCl and 5 mM CaCl2 at pH 7.8 and 25° C. Experiments with the DC-SIGN CRD were performed at a receptor concentration of 50 μM in 25 mM HEPES with 10% D2O, 150 mM NaCl and 5 mM CaCl2 at pH 7.0 and 25° C. TFA served as an internal reference at a concentration of 50 μM. Apparent relaxation rates R2,obs for the reporter ligand were determined using the CPMG pulse sequence as previously published (Wamhoff, E. C. et al. (19)F Nmr-Guided Design of Glycomimetic Langerin Ligands. ACS Chem Biol, 11, 2407-13 (2016): Carr, H. Y. & Purcell, E. M. Effects of Diffusion on Free Precession in Nuclear Magnetic Resonance Experiments. Phys Rev, 94, 630-638 (1954); Meiboom, S. & Gill, D. Modified Spin-Echo Method for Measuring Nuclear Relaxation Times. Rev Sci Instrum 29, 688-691 (1958)).
Ki determination. Ki values were determined as previously published for Langerin (Wamhoff, E. C. et al. (19)F NMR-Guided Design of Glycomimetic Langerin Ligands. ACS Chem Biol 11, 2407-13 (2016)). Briefly, titration experiments were conducted at a concentration of 0.1 mM of reporter ligand 24 at five competitor concentrations [I]T. Samples were prepared via serial dilution. For the acids GlcNS, GlcNAc-6-OS and GlcNS-6-OS the pH values were monitored and adjusted to 7.8 if necessary.

[3] = biological target: T2, DC-SIGN (Homo sapiens, UniProt Q9NNX6); details: literature; cited from earlier work
T2 sequence (Q9NNX6 1-404): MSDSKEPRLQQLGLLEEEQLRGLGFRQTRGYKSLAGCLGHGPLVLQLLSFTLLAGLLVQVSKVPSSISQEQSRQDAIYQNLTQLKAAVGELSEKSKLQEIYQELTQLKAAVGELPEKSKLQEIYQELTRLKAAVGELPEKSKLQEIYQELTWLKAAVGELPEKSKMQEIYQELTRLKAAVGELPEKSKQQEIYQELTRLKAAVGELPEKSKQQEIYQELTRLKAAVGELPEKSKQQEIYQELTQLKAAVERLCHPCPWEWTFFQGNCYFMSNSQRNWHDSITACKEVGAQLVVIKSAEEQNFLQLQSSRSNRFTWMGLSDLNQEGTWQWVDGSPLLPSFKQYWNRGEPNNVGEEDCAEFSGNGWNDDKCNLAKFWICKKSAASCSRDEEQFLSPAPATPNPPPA

[4] = biological target: T3, DC-SIGN CRD (Homo sapiens, UniProt Q9NNX6); assay: 19F R2-filtered NMR reporter displacement assay transferred to DC-SIGN; assay type: binding; details: 19F R2-filtered NMR, DC-SIGN CRD 50 μM, pH 7.0, 25° C.
T3 construct: residues 205 to 404; TEV site (C); StreptagII (C); made in house; host or cells: E. coli BL21* (DE3)
T3 sequence (Q9NNX6 250-404): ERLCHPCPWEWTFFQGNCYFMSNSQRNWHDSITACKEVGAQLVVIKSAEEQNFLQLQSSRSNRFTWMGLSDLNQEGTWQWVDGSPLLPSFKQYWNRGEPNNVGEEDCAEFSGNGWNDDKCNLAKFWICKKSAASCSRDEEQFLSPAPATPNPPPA
Description: Langerin and DC-SIGN carbohydrate recognition domain. Expression and purification were conducted as previously published. Briefly, the monomeric ^15N-labeled Langerin and DC-SIGN carbohydrate recognition domains (CRDs) were expressed insolubly in E. coli BL21* (DE3) (Invitrogen). Following enzymatic cell lysis, inclusion bodies were harvested and subsequently solubilized. The sample was centrifuged and the Langerin and DC-SIGN CRDs were refolded overnight via rapid dilution. Next, the sample was dialyzed overnight, centrifuged and purified via StrepTactin affinity chromatography (Iba). After an additional dialysis step overnight, the sample was centrifuged and the buffer was exchanged to 25 mM HEPES with 150 mM NaCl at pH 7.0 using 7 kDa size-exclusion desalting columns (Thermo Scientific) for ^19F R2-filtered and ^15N HSQC NMR experiments. The concentration of Langerin and DC-SIGN CRDs was determined via UV spectroscopy (A280, 0.1%=3.19 and A280, 0.1%=2.98). Purity and monodispersity of Langerin and DC-SIGN CRD samples were analyzed via SDS PAGE and DLS.
General remarks. ^19F R2-filtered NMR experiments were conducted on a PremiumCompact 600 MHz spectrometer (Agilent). […] Apparent relaxation rates R2,obs for the reporter ligand were determined using the CPMG pulse sequence as previously published (Wamhoff, E. C. et al. (19)F Nmr-Guided Design of Glycomimetic Langerin Ligands. ACS Chem Biol, 11, 2407-13 (2016): Carr, H. Y. & Purcell, E. M. Effects of Diffusion on Free Precession in Nuclear Magnetic Resonance Experiments. Phys Rev, 94, 630-638 (1954); Meiboom, S. & Gill, D. Modified Spin-Echo Method for Measuring Nuclear Relaxation Times. Rev Sci Instrum 29, 688-691 (1958)).
Assay development for DC-SIGN. […] Briefly, the KD value and the relaxation rate in bound state R2,b were determined at five concentrations [L]T of reporter ligand 24 in three independent titration experiments. […]
Ki determination. Ki values were determined as previously published for Langerin (Wamhoff, E. C. et al. (19)F NMR-Guided Design of Glycomimetic Langerin Ligands. ACS Chem Biol 11, 2407-13 (2016)). […]

[5] = system: hLangerin+ Raji cells; assay: cell-based binding and internalization assay of functionalized GFP; set-up: species or system human; details: 4° C., in words
Description: In FIG. 21 (A) the binding and uptake of functionalized GFP at 4° C. and 37° C. was dose-dependently measured by flow cytometry with Raji and Langerin^+ Raji cells. In FIG. 21 (B) GFP and liposomes were incubated for various time points with Langerin^+ Raji cells. Here, FITC-BSA encapsulated liposomes were utilized to compare the FITC fluorescence with the GFP fluorescence.
Functionalized GFP was then tested in a cell-based binding and internalization assay. Both GlcNTosyl functionalized GFP and unconjugated GFP were incubated with WT or hLangerin^+ Raji cells at 4° C. and at 37° C. for 1 h or 2 h, respectively (see FIG. 21). Targeted GFP specifically bound to Langerin expressing cells and saturated at concentrations above 1 μg/ml (see FIG. 21 (A)). […] GFP fluorescence was slightly elevated compared to the binding assay and also saturated above 1 μg/ml.

| Compound | Ki [2] [µM] | other results |
| --- | --- | --- |
| C[S+](C)[O-] [DMSO] | – | dead cells [1]: 98% |
| CC(=O)N[C@H]1C(O)O[C@H](COS(=O)(=O)O)[C@@H](O)[C@@H]1O (stereo partly shown) [GlcNAc-6-OS, N-acetyl glucosamine-6-sulfate] | 600 ± 100 | – |
| OC[C@H]1OC(O)[C@H](O)[C@@H](O)[C@@H]1O (stereo partly shown) [Glc] | 21000 ± 4000 | – |
| CC(=O)N[C@H]1C(O)O[C@H](CO)[C@@H](O[C@@H]2O[C@H](CO)[C@H](O)[C@H](O)[C@H]2O)[C@@H]1O[C@@H]1O[C@@H](C)[C@@H](O)[C@@H](O)[C@@H]1O (stereo partly shown) [Le^X] | – | Kd [3]: ~1000 µM |
| O=C[C@@H](O)[C@@H](O)[C@H](O)[C@H](O)CO [Man, mannose] | 4500 ± 500 | Ki [4]: 3000 ± 300 µM |
| Unconjugated GFP: Green Fluorescence Protein without ligand, SEQ ID NO: 82 | – | fluorescence signal [5]: did not show increased fluorescence signals |

Second part, led by results:

| Ki [2] [µM] | Compound | other results |
| --- | --- | --- |
| 4100 ± 700 | CC(=O)N[C@H]1C(O)O[C@H](CO)[C@@H](O)[C@@H]1O (stereo partly shown) [GlcNAc, N-acetyl glucosamine] | – |
| 1400 ± 200 | O=S(=O)(O)N[C@H]1C(O)O[C@H](CO)[C@@H](O)[C@@H]1O (stereo partly shown) [GlcNS, glucosamine-2-sulfate] | – |
| 280 ± 60 | O=S(=O)(O)N[C@H]1C(O)O[C@H](COS(=O)(=O)O)[C@@H](O)[C@@H]1O (stereo partly shown) [GlcNS-6-OS, glucosamine-2-sulfate-6-sulfate] | – |
